# Laboratory results as given in ChEMBL document CHEMBL5042481, “Structure-Based Optimization of ML300-Derived, Noncovalent Inhibitors Targeting the Severe Acute Respiratory Syndrome Coronavirus 3CL Protease (SARS-CoV-2 3CLpro)” (J Med Chem, 2022).
# Active and inactive are the calls of the source. The rule behind the calls is not given here.
# Columns and labels:
# SARS-CoV-2 [1] = test: Antiviral activity against SARS Cov-2 USA_WA1/2020 infected in Vero E6 cells expressing ACE2 reporter assessed as reduction in plaque formation at 0.21 to 50 uM and measured at 3 days post-infection by crystal violet staining based assay; format: functional, organism-based; conditions: Severe acute respiratory syndrome coronavirus 2, USA_WA1/2020, Vero C1008, 72 h
# SARS-CoV-2 [2] = test: Antiviral activity against SARS Cov-2 USA_WA1/2020 infected in Vero E6 cells expressing ACE2 reporter assessed as inhibition of viral cytopathic effect measured after 68 hrs post infection by neutral red uptake assay; format: functional, organism-based; conditions: Severe acute respiratory syndrome coronavirus 2, USA_WA1/2020, Vero C1008, 68 h
# [3] = Apparent passive permeability in MDCK-MDR1 cells; format: ADME, cell-based, Canis lupus familiaris; conditions: dog
# [4] = Intrinsic clearance in human liver S9 fraction at 25 uM incubated for 1 hr in presence of NADPH by LC-MS/MS analysis; format: ADME, subcellular; conditions: read-out: CLH
# CYP3A4 = CYP3A4 (Homo sapiens, UniProt P08684); test: Inhibition of CYP3A4 (unknown origin) at 10 uM relative to control; format: ADME
# [5] = Intrinsic clearance in human liver microsomes; format: ADME, Microsome; conditions: read-out: CLH
# CYP2D6 = CYP2D6 (Homo sapiens, UniProt P10635); test: Inhibition of CYP2D6 (unknown origin) at 10 uM relative to control; format: ADME
# CYP2C9 = CYP2C9 (Homo sapiens, UniProt P11712); test: Inhibition of CYP2C9 (unknown origin) at 10 uM relative to control; format: ADME
# [6] = Intrinsic clearance in rat liver microsomes; format: ADME, Microsome; conditions: read-out: CLH
# [7] = Protein binding in human plasma assessed as unbound fraction; format: ADME, cell-free
# [8] = Protein binding in rat plasma assessed as unbound fraction; format: ADME, cell-free
# [9] = test system: Severe acute respiratory syndrome-related coronavirus; conditions: 1, dose microM <=100, time 30.0 min
# [10] = test system: Severe acute respiratory syndrome coronavirus 2; conditions: dose microM <=100, time 30.0 min
# SARS-CoV-2 [11] = test: Cytotoxicity against SARS CoV-2 infected Vero E6 cells assessed as reduction in cell viability; format: toxicity; conditions: chlorocebus sabaeus, vero c1008
# Chain of CYP2D6 (P10635 whole entry): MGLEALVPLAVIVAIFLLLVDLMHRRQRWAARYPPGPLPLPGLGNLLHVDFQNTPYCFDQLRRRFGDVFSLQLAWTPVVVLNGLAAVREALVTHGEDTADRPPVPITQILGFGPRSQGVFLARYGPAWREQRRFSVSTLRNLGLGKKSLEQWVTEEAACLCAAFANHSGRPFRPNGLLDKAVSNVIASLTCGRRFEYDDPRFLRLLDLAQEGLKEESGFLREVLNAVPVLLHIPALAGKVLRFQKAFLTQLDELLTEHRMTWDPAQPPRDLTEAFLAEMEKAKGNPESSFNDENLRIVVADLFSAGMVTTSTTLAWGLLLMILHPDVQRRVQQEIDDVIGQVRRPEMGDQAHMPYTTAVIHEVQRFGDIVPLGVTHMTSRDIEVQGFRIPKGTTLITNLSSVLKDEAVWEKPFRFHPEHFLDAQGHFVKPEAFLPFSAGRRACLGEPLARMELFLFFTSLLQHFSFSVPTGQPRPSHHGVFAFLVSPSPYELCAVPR
# Chain of CYP3A4 (P08684 whole entry): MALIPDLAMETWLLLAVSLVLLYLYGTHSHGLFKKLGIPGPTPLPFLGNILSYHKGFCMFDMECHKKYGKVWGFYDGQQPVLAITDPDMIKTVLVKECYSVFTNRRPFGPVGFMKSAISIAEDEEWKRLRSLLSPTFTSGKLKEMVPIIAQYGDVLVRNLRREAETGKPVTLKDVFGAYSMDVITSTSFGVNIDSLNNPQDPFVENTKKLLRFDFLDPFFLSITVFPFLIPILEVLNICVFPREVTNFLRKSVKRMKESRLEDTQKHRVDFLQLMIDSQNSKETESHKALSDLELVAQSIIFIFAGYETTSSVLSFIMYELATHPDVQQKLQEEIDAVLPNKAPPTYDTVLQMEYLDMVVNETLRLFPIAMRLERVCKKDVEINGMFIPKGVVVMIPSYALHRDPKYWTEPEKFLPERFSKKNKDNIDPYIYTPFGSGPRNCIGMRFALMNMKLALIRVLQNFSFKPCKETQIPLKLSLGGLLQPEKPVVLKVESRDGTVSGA
# Chain of CYP2C9 (P11712 whole entry): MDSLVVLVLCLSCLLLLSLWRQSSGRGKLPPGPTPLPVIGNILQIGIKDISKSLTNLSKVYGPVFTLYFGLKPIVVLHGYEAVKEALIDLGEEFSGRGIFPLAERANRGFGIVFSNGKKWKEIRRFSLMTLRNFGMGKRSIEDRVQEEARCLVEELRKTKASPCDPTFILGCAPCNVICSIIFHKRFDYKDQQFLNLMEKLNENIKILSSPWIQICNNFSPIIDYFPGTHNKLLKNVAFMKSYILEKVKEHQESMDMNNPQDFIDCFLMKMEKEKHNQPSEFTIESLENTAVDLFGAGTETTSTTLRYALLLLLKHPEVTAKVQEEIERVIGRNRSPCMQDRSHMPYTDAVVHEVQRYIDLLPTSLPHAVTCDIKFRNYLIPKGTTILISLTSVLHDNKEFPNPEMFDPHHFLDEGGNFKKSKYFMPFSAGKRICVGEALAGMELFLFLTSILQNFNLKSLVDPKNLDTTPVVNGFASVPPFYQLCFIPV
structure (smiles),measurement,setting,value
O=C(Cn1nnc2ccccc21)N(Cc1cccc(Cl)c1)c1ccc(-c2cn[nH]c2)nc1,EC50,SARS-CoV-2 [1],4.65 µM
same,EC50,SARS-CoV-2 [2],3.81 µM
O=C(Cc1cncnc1)N(Cc1cccc(Cl)c1)c1ccc(-c2cn[nH]c2)cc1,Papp,[3],66.7 ×10⁻⁶ cm/s
same,CLint scaled at 25 µM,[4],145 mL/min/kg
same,inhibition at 10 µM,CYP3A4,88%
same,CLint scaled,[5],620 mL/min/kg
same,inhibition at 10 µM,CYP2D6,26%
same,inhibition at 10 µM,CYP2C9,92%
same,CLint scaled,[6],3300 mL/min/kg
same,fraction unbound,[7],0.018
same,fraction unbound,[8],0.11
O=C(Cn1nnc2ccccc21)N(Cc1ccsc1)c1ccc(-c2cccnc2)cc1,EC50,SARS-CoV-2 [1],14.6 µM
same,EC50,SARS-CoV-2 [2],12.1 µM
same,inhibition,[9],Active
same,inhibition,[10],Active
O=C(Cn1nnc2ccccc21)N(Cc1cccc(Cl)c1)c1ccc(-c2c[nH]cn2)cc1,Papp,[3],46.1 ×10⁻⁶ cm/s
same,CC50,SARS-CoV-2 [11],> 50 µM
same,inhibition at 10 µM,CYP3A4,100%
same,CLint scaled,[5],141 mL/min/kg
same,inhibition at 10 µM,CYP2D6,87%
same,inhibition at 10 µM,CYP2C9,100%
same,CLint scaled,[6],589 mL/min/kg
same,fraction unbound,[7],0.007
same,fraction unbound,[8],0.018
O=C(Cc1cccnc1)N(Cc1cccc(Cl)c1)c1ccc(-c2cn[nH]c2)cc1,Papp,[3],61.8 ×10⁻⁶ cm/s
same,CLint scaled at 25 µM,[4],256 mL/min/kg
same,inhibition at 10 µM,CYP3A4,99%
same,CLint scaled,[5],981 mL/min/kg
same,inhibition at 10 µM,CYP2D6,55%
same,inhibition at 10 µM,CYP2C9,99%
same,CLint scaled,[6],3560 mL/min/kg
same,fraction unbound,[7],0.004
same,fraction unbound,[8],0.035
O=C(Nc1ccc(N(Cc2ccsc2)C(=O)Cn2nnc3ccccc32)cc1)C1CC1,EC50,SARS-CoV-2 [1],28.2 µM
same,EC50,SARS-CoV-2 [2],19.9 µM
O=C(Cn1nnc2ccccc21)N(Cc1cccc(Cl)c1)c1ccc(-c2ccc[nH]c2=O)cc1,EC50,SARS-CoV-2 [1],16.7 µM
same,EC50,SARS-CoV-2 [2],8.77 µM
"CCC(CC)COC(=O)[C@H](C)NP(=O)(OC[C@H]1O[C@@](C#N)(c2ccc3c(N)ncnn23)[C@H](O)[C@@H]1O)Oc1ccccc1 (single isomer, unassigned)",EC50,SARS-CoV-2 [1],0.43 µM
same,EC50,SARS-CoV-2 [2],0.34 µM
O=C(Cn1nnc2ccccc21)N(Cc1ccsc1)c1ccc(-c2ccccc2)cc1,inhibition,[9],inactive
same,inhibition,[10],inactive
O=C(Cn1nnc2ccccc21)N(Cc1cccc(Cl)c1)c1ccc(-c2cn[nH]c2)cc1,Papp,[3],39.4 ×10⁻⁶ cm/s
same,CLint scaled at 25 µM,[4],436 mL/min/kg
same,inhibition at 10 µM,CYP3A4,96%
same,EC50,SARS-CoV-2 [1],3.31 µM
same,EC50,SARS-CoV-2 [2],1.98 µM
same,CLint scaled,[5],2620 mL/min/kg
same,inhibition at 10 µM,CYP2D6,63%
same,inhibition at 10 µM,CYP2C9,99%
same,CLint scaled,[6],5670 mL/min/kg
same,fraction unbound,[7],0.001
O=C(Cn1nnc2ccccc21)N(Cc1cccc(Cl)c1)c1ccc(-c2cccnc2)cc1,EC50,SARS-CoV-2 [1],11.1 µM
same,EC50,SARS-CoV-2 [2],7.61 µM
COc1cc(-c2cn[nH]c2)ccc1N(Cc1cccc(Cl)c1)C(=O)Cn1nnc2ccccc21,EC50,SARS-CoV-2 [1],2.01 µM
same,EC50,SARS-CoV-2 [2],2.3 µM
O=C(Cn1nnc2ccccc21)N(Cc1cccc(Cl)c1)c1ccc(-c2cn[nH]c2)cn1,EC50,SARS-CoV-2 [1],3.39 µM
same,EC50,SARS-CoV-2 [2],1.91 µM
COc1cc(N(Cc2cccc(Cl)c2)C(=O)Cn2nnc3ccccc32)ccc1-c1cn[nH]c1,EC50,SARS-CoV-2 [1],3.24 µM
same,EC50,SARS-CoV-2 [2],2.93 µM
O=C(Cn1nnc2ccccc21)N(Cc1ccsc1)c1ccc(-c2c[nH]cn2)cc1,EC50,SARS-CoV-2 [1],1.75 µM
same,EC50,SARS-CoV-2 [2],1.74 µM
same,fraction unbound,[7],0.01
